# Results from patent publication US5066652A, “Thiomethyl and sulfinylmethyl derivatives having gastric acid antisectetory activity and pharmaceutical compositions containing them” (Chiesi Farmaceutici S.p.A., priority 1988, dated 1991).
# Tested on: secretion of hydrochloric acid in the stomach (Shay ulcers)
# Test: Antisecretory activity - Shay ulcers (pylorus-ligated rat)
# Assay type: in vivo
# Details: Rattus norvegicus, 2 h; footnote 1: ED40 value; free acid output; read-out: ED40 free acid output
# Protocol: Antisecretory activity--Shay ulcers The gastric secretory inhibitory activity of the compounds of general formula (I) was determined in case of hypersecretion induced in the rat by ligation of gastroduodenal junction according to the procedure described by Shay (Shay H. et al, Gasgroenterology 5, 43-61, 1945). […] Thereafter, they were fasted for 24 hours, with water ad libitum, which period was sufficient to assure a good gastric emptying, then laparectomized under light ether anesthesia, so as to allow to effect a pylorus ligation as closer as possible to the gastroduodenal junction. Two hours after the ligation, the animals were killed by means of an ether excess and stomaches were removed. Gastric contents were recovered, after filtration through a gauze, and placed in graduated test-tubes and centrifuged at 3000×g for 15 minutes. The following parameters were evaluated on the surnatant: volume (ml); pH; free acidity by conversion of pH into H^+ μEq by means of Moore table (Ann. New York Acad. Sci. 1967, 866-874); titrable acidity, by titration of an amount with 0.02N NaOH, using phenolphtalein as the indicator. […] The results were expressed as percent inhibition of hypersecretion induced by pylorus ligation in the control rats. The obtained results are reported in table 3 as: ED50 (μmol/kg) calculated on the basis of the equation of the linear tract of does-effect curves obtained with the test compounds on volume, free and titrable acidities; […]
row,SMILES,ED40
1,"COc1c(C)cnc(CSc2nccn2C)c1C [VIII, 1-methyl-2-[2'-(3' ,5 '-dimethyl-4'-methoxypyridyl)methylthio]imidazole.2HCl]",0.03 µmol/kg

# Same assay, conditions: Rattus norvegicus, 2 h; footnote 1: ED40 value; secretion volume; read-out: ED40 volume
row,SMILES,ED40
1,"COc1c(C)cnc(CSc2nccn2C)c1C [VIII, 1-methyl-2-[2'-(3' ,5 '-dimethyl-4'-methoxypyridyl)methylthio]imidazole.2HCl]",0.12 µmol/kg

# Same assay, conditions: Rattus norvegicus, 2 h; footnote 1: ED40 value; titratable acid output; read-out: ED40 titratable acid output
row,SMILES,ED40
1,"COc1c(C)cnc(CSc2nccn2C)c1C [VIII, 1-methyl-2-[2'-(3' ,5 '-dimethyl-4'-methoxypyridyl)methylthio]imidazole.2HCl]",0.03 µmol/kg

# Same assay, conditions: Rattus norvegicus, 2 h; α=1 represents 100% inhibition of gastric acid hypersecretion; read-out: α (approximate value of intrinsic activity)
row,SMILES,Emax
1,CN(C)c1ccccc1CSc1nccn1-c1ccc(F)cc1 [XXX],100%
2,"COc1ccnc(CSc2nccn2-c2ccccc2)c1C [XXIII, 1-phenyl-2-[2'-(3'-methyl-4'-methoxypyridyl)methylthio]imidazole]",70%
3,"c1ccc(-n2ccnc2SCc2ccc3ccccc3n2)cc1 [XXXVI, 1-phenyl-2-[2'-(quinolyl)methylthio]imidazole]",60 to 70%
4,"CN(C)c1ccccc1CSc1nccn1-c1ccccc1C(F)(F)F [XXXV, 1-(2'-trifluoromethylphenyl)-2-[2'-(N,N-dimethylanilyl)methylthio]imidazole. 2HCl]",100%
5,"Cn1ccnc1[S+]([O-])Cc1nc2ccccc2[nH]1 (stereo not drawn) [XVII, 1-methyl-2-[2'-benzimidazolylmethylsulfinyl)imidazole]",70 to 90%
6,"CN(C)c1ccccc1CSc1nc2cnccc2[nH]1 [L, 2-[2'-(N,N-dimethylanilyl)methylthio]imidazo-[4,5-c]-pyridine]",100%
7,"c1ccc(N2CCOCC2)c(CSc2nc3cccnc3[nH]2)c1 [XLVII, 2-(2'-[1'-(4-morpholinyl)phenyl]methylthio)imidazo-[4,5-b]-pyridine]",70 to 90%
8,"COc1ccnc(C[S+]([O-])c2nccn2-c2cccc(F)c2)c1C (stereo not drawn) [XXXVII, 1-(3'-fluorophenyl)-2-[2'-(3'-methyl-4'-methoxypyridyl)methylsulphinyl]imidazole]",60 to 80%
9,"CN(C)c1ccccc1C[S+]([O-])c1nccn1-c1ccccc1F (stereo not drawn) [XLI, 1-(2'-fluorophenyl)-2-[2'-(N,N-dimethylanilyl)methylsulfinyl]imidazole]",100%
10,"[O-][S+](Cc1nc2ccccc2[nH]1)c1nccn1-c1ccc(F)cc1 (stereo not drawn) [XXXIX, 1-(4'-fluorophenyl)-2-[2'-(benzimidazolyl)methylsulfinyl]-imidazole]",80%
11,"Cn1ccnc1SCc1ccc2ccccc2n1 [XII, 1-methyl-2-(2'-quinolylmethylthio)imidazole.2HCl]",100%
12,"COc1c(C)cnc(CSc2nccn2C)c1C [VIII, 1-methyl-2-[2'-(3' ,5 '-dimethyl-4'-methoxypyridyl)methylthio]imidazole.2HCl]",40 to 60%

# Same assay, conditions: rat, pylorus ligation, 2 h, intraduodenal or intravenous; free acid output; read-out: ED50 free acid output
row,SMILES,ED50
1,CN(C)c1ccccc1CSc1nccn1-c1ccc(F)cc1 [XXX],9.2 µmol/kg
2,"COc1ccnc(CSc2nccn2-c2ccccc2)c1C [XXIII, 1-phenyl-2-[2'-(3'-methyl-4'-methoxypyridyl)methylthio]imidazole]",125 µmol/kg
3,"c1ccc(-n2ccnc2SCc2ccc3ccccc3n2)cc1 [XXXVI, 1-phenyl-2-[2'-(quinolyl)methylthio]imidazole]",50 µmol/kg
4,"CN(C)c1ccccc1CSc1nccn1-c1ccccc1C(F)(F)F [XXXV, 1-(2'-trifluoromethylphenyl)-2-[2'-(N,N-dimethylanilyl)methylthio]imidazole. 2HCl]",8.3 µmol/kg
5,"Cn1ccnc1[S+]([O-])Cc1nc2ccccc2[nH]1 (stereo not drawn) [XVII, 1-methyl-2-[2'-benzimidazolylmethylsulfinyl)imidazole]",84.4 µmol/kg
6,"CN(C)c1ccccc1CSc1nc2cnccc2[nH]1 [L, 2-[2'-(N,N-dimethylanilyl)methylthio]imidazo-[4,5-c]-pyridine]",5.5 µmol/kg
7,"c1ccc(N2CCOCC2)c(CSc2nc3cccnc3[nH]2)c1 [XLVII, 2-(2'-[1'-(4-morpholinyl)phenyl]methylthio)imidazo-[4,5-b]-pyridine]",42.3 µmol/kg
8,"COc1ccnc(C[S+]([O-])c2nccn2-c2cccc(F)c2)c1C (stereo not drawn) [XXXVII, 1-(3'-fluorophenyl)-2-[2'-(3'-methyl-4'-methoxypyridyl)methylsulphinyl]imidazole]",73 µmol/kg
9,"CN(C)c1ccccc1C[S+]([O-])c1nccn1-c1ccccc1F (stereo not drawn) [XLI, 1-(2'-fluorophenyl)-2-[2'-(N,N-dimethylanilyl)methylsulfinyl]imidazole]",42.3 µmol/kg
10,"[O-][S+](Cc1nc2ccccc2[nH]1)c1nccn1-c1ccc(F)cc1 (stereo not drawn) [XXXIX, 1-(4'-fluorophenyl)-2-[2'-(benzimidazolyl)methylsulfinyl]-imidazole]",139 µmol/kg
11,"Cn1ccnc1SCc1ccc2ccccc2n1 [XII, 1-methyl-2-(2'-quinolylmethylthio)imidazole.2HCl]",34.7 µmol/kg

# Same assay, conditions: rat, pylorus ligation, 2 h, intraduodenal or intravenous; secretion volume; read-out: ED50 volume
row,SMILES,ED50
1,CN(C)c1ccccc1CSc1nccn1-c1ccc(F)cc1 [XXX],21.1 µmol/kg
2,"COc1ccnc(CSc2nccn2-c2ccccc2)c1C [XXIII, 1-phenyl-2-[2'-(3'-methyl-4'-methoxypyridyl)methylthio]imidazole]",125 µmol/kg
3,"c1ccc(-n2ccnc2SCc2ccc3ccccc3n2)cc1 [XXXVI, 1-phenyl-2-[2'-(quinolyl)methylthio]imidazole]",120 µmol/kg
4,"CN(C)c1ccccc1CSc1nccn1-c1ccccc1C(F)(F)F [XXXV, 1-(2'-trifluoromethylphenyl)-2-[2'-(N,N-dimethylanilyl)methylthio]imidazole. 2HCl]",24.9 µmol/kg
5,"Cn1ccnc1[S+]([O-])Cc1nc2ccccc2[nH]1 (stereo not drawn) [XVII, 1-methyl-2-[2'-benzimidazolylmethylsulfinyl)imidazole]",134 µmol/kg
6,"CN(C)c1ccccc1CSc1nc2cnccc2[nH]1 [L, 2-[2'-(N,N-dimethylanilyl)methylthio]imidazo-[4,5-c]-pyridine]",19.7 µmol/kg
7,"c1ccc(N2CCOCC2)c(CSc2nc3cccnc3[nH]2)c1 [XLVII, 2-(2'-[1'-(4-morpholinyl)phenyl]methylthio)imidazo-[4,5-b]-pyridine]",130 µmol/kg
8,"COc1ccnc(C[S+]([O-])c2nccn2-c2cccc(F)c2)c1C (stereo not drawn) [XXXVII, 1-(3'-fluorophenyl)-2-[2'-(3'-methyl-4'-methoxypyridyl)methylsulphinyl]imidazole]",80 µmol/kg
9,"CN(C)c1ccccc1C[S+]([O-])c1nccn1-c1ccccc1F (stereo not drawn) [XLI, 1-(2'-fluorophenyl)-2-[2'-(N,N-dimethylanilyl)methylsulfinyl]imidazole]",124 µmol/kg
10,"[O-][S+](Cc1nc2ccccc2[nH]1)c1nccn1-c1ccc(F)cc1 (stereo not drawn) [XXXIX, 1-(4'-fluorophenyl)-2-[2'-(benzimidazolyl)methylsulfinyl]-imidazole]",300 µmol/kg
11,"Cn1ccnc1SCc1ccc2ccccc2n1 [XII, 1-methyl-2-(2'-quinolylmethylthio)imidazole.2HCl]",43.5 µmol/kg

# Same assay, conditions: rat, pylorus ligation, 2 h, intraduodenal or intravenous; titratable acid output; read-out: ED50 titratable acid output
row,SMILES,ED50
1,CN(C)c1ccccc1CSc1nccn1-c1ccc(F)cc1 [XXX],11.2 µmol/kg
2,"COc1ccnc(CSc2nccn2-c2ccccc2)c1C [XXIII, 1-phenyl-2-[2'-(3'-methyl-4'-methoxypyridyl)methylthio]imidazole]",110 µmol/kg
3,"c1ccc(-n2ccnc2SCc2ccc3ccccc3n2)cc1 [XXXVI, 1-phenyl-2-[2'-(quinolyl)methylthio]imidazole]",80 µmol/kg
4,"CN(C)c1ccccc1CSc1nccn1-c1ccccc1C(F)(F)F [XXXV, 1-(2'-trifluoromethylphenyl)-2-[2'-(N,N-dimethylanilyl)methylthio]imidazole. 2HCl]",5 µmol/kg
5,"Cn1ccnc1[S+]([O-])Cc1nc2ccccc2[nH]1 (stereo not drawn) [XVII, 1-methyl-2-[2'-benzimidazolylmethylsulfinyl)imidazole]",109 µmol/kg
6,"CN(C)c1ccccc1CSc1nc2cnccc2[nH]1 [L, 2-[2'-(N,N-dimethylanilyl)methylthio]imidazo-[4,5-c]-pyridine]",6.9 µmol/kg
7,"c1ccc(N2CCOCC2)c(CSc2nc3cccnc3[nH]2)c1 [XLVII, 2-(2'-[1'-(4-morpholinyl)phenyl]methylthio)imidazo-[4,5-b]-pyridine]",61.9 µmol/kg
8,"COc1ccnc(C[S+]([O-])c2nccn2-c2cccc(F)c2)c1C (stereo not drawn) [XXXVII, 1-(3'-fluorophenyl)-2-[2'-(3'-methyl-4'-methoxypyridyl)methylsulphinyl]imidazole]",80 µmol/kg
9,"CN(C)c1ccccc1C[S+]([O-])c1nccn1-c1ccccc1F (stereo not drawn) [XLI, 1-(2'-fluorophenyl)-2-[2'-(N,N-dimethylanilyl)methylsulfinyl]imidazole]",61.9 µmol/kg
10,"[O-][S+](Cc1nc2ccccc2[nH]1)c1nccn1-c1ccc(F)cc1 (stereo not drawn) [XXXIX, 1-(4'-fluorophenyl)-2-[2'-(benzimidazolyl)methylsulfinyl]-imidazole]",165 µmol/kg
11,"Cn1ccnc1SCc1ccc2ccccc2n1 [XII, 1-methyl-2-(2'-quinolylmethylthio)imidazole.2HCl]",38.1 µmol/kg

# Same assay, conditions: ratio of mean ED50 on the 3 parameters of test compound to mean ED50 of omeprazole
row,SMILES,PR (potency ratio in comparison with Omeprazole)
1,CN(C)c1ccccc1CSc1nccn1-c1ccc(F)cc1 [XXX],"5,0"
2,"COc1ccnc(CSc2nccn2-c2ccccc2)c1C [XXIII, 1-phenyl-2-[2'-(3'-methyl-4'-methoxypyridyl)methylthio]imidazole]","43,4"
3,"c1ccc(-n2ccnc2SCc2ccc3ccccc3n2)cc1 [XXXVI, 1-phenyl-2-[2'-(quinolyl)methylthio]imidazole]","30,1"
4,"CN(C)c1ccccc1CSc1nccn1-c1ccccc1C(F)(F)F [XXXV, 1-(2'-trifluoromethylphenyl)-2-[2'-(N,N-dimethylanilyl)methylthio]imidazole. 2HCl]","4,6"
5,"Cn1ccnc1[S+]([O-])Cc1nc2ccccc2[nH]1 (stereo not drawn) [XVII, 1-methyl-2-[2'-benzimidazolylmethylsulfinyl)imidazole]","39,7"
6,"CN(C)c1ccccc1CSc1nc2cnccc2[nH]1 [L, 2-[2'-(N,N-dimethylanilyl)methylthio]imidazo-[4,5-c]-pyridine]","3,8"
7,"c1ccc(N2CCOCC2)c(CSc2nc3cccnc3[nH]2)c1 [XLVII, 2-(2'-[1'-(4-morpholinyl)phenyl]methylthio)imidazo-[4,5-b]-pyridine]","28,2"
8,"COc1ccnc(C[S+]([O-])c2nccn2-c2cccc(F)c2)c1C (stereo not drawn) [XXXVII, 1-(3'-fluorophenyl)-2-[2'-(3'-methyl-4'-methoxypyridyl)methylsulphinyl]imidazole]","28,1"
9,"CN(C)c1ccccc1C[S+]([O-])c1nccn1-c1ccccc1F (stereo not drawn) [XLI, 1-(2'-fluorophenyl)-2-[2'-(N,N-dimethylanilyl)methylsulfinyl]imidazole]","27,6"
10,"[O-][S+](Cc1nc2ccccc2[nH]1)c1nccn1-c1ccc(F)cc1 (stereo not drawn) [XXXIX, 1-(4'-fluorophenyl)-2-[2'-(benzimidazolyl)methylsulfinyl]-imidazole]","72,8"
11,"Cn1ccnc1SCc1ccc2ccccc2n1 [XII, 1-methyl-2-(2'-quinolylmethylthio)imidazole.2HCl]","14,0"
12,"COc1c(C)cnc(CSc2nccn2C)c1C [VIII, 1-methyl-2-[2'-(3' ,5 '-dimethyl-4'-methoxypyridyl)methylthio]imidazole.2HCl]","0,02"
